Results taken from patent US11406642B2, “DNP and DNP prodrug treatment of neuromuscular, neurodegenerative, autoimmune, developmental, traumatic brain injury, concussion, dry eye disease, hearing loss and/or metabolic diseases” (priority 2016, dated 2022).

Tests used:
[1] = test system: EAE mouse model of Multiple Sclerosis; experiment: EAE MS model (clinical score, body weight); assay type: in vivo; conditions: for progression of paralysis monitored as Clinical Score: administered 7-days after induction of MOG35-55 myelin peptide; for weight loss / body weight changes: versus Placebo mice
Excerpt: FIG. 1 is a chart illustrating the comparative effect of two compounds of the invention at lowering or blocking progression of paralysis as monitored as a Clinical Score (EAE MS model comparing parent (2,4-DNP) to prodrug (II-38) at equivalent exposures of 5 mpk parent to […] prodrug for efficacy). Legend: diamond—placebo; square—2,4-DNP 5 mpk; triangle—II-38 8 mpk; x—II-38 16 mpk; asterisk—II-38 80 mpk. P values by Ordinal Regression: 2,4-DNP 5 mpk=0.0192; II-38 8 mpk=0.000954; II-38 16 mpk=0.000124; II-38 80 mpk=0.00014 (results from logistic regression model using ordinal package from cran project, www.cran.r-project.org).
Legend: diamond—placebo; square—2,4-DNP 5 mpk; triangle—II-38 8 mpk; x—II-38 16 mpk; asterisk—II-38 80 mpk. All doses significant to preserving body weight. P values by Ordinal Regression: 2,4-DNP 5 mpk=0.0188; II-38 8 mpk<0.0001; II-38 16 mpk=0.044; II-38 80 mpk<0.0001.
In one embodiment, the compositions and methods of the invention relate to a pharmacological intervention that abolishes overt ROS production and improves the quality of the mitochondrial population by mitophagy, induces Brain Derived Neurotrophin Factor (BDNF), increases cAMP, and/or remodels cellular expression. In one embodiment, a drug of the invention thus becomes “disease modifying.” In one embodiment, a prodrug of DNP (II-38) was administered to a mouse model of Multiple Sclerosis, called the EAE, 7-days after induction of the MOG35-55 myelin peptide. The ProDrug of DNP, II-38, was administered at multiples of exposure to 2,4-DNP or DNP. […] Even though DNP historically was used in the 1930's for weight loss at high doses, here it is shown that it can paradoxically be repositioned to prevent wasting associated with neurodegenerative/autoimmune diseases at low doses.

[2] = test system: noise induced hearing loss; experiment: In vivo noise exposure, Compound Action Potential threshold; set-up: species or system Rats; conditions: for CAP threshold (compound + Noise): noise 8 h, 105 dB, 8-16 kHz, 5 days oral gavage q.d., 2,4-DNP 5 mpk, II-38 80 mpk, 1-week post exposure; for threshold lower than Noise alone group: same study, Noise alone 25 dB
Procedure: In vivo Noise Exposure Pilot DNP (2,4-DNP) & Prodrug of DNP (II-38): Rats, N=6/group: control, noise alone, noise+2,4-DNP (5 mpk), noise+II-38 (80 mpk). Noise exposure: 8 h, 105 dB, noise band 8-16 kHz. Treatment duration 5 days oral gavage q.d. starting day of noise. Endpoint: Compound Action Potential (CAP) recorded from the round window membrane 1-week post exposure. Threshold: intensity in dB SPL needed to produce 4 μV CAP amplitude.

Structure (SMILES)	progression of paralysis monitored as Clinical Score [1]	weight loss / body weight changes [1]	CAP threshold (compound + Noise) [2] [dB]	threshold lower than Noise alone group [2]
O=[N+]([O-])c1ccc(O)c([N+](=O)[O-])c1 [2,4-DNP, 2,4-dinitrophenol]	striking effect at lowering or blocking progression of paralysis	preventing weight loss seen in the Placebo mice	15	about 10 dB
O=C(Oc1ccc([N+](=O)[O-])cc1[N+](=O)[O-])N1CCOCC1 [II-38, 2,4-Dinitrophenyl morpholine-4-carboxylate]	striking effect at lowering or blocking progression of paralysis	preventing weight loss seen in the Placebo mice	5	approximately 20 dB
